Results on 16 compounds are retold here after patent publication US11766447B2, “3′3′-cyclic dinucleotide analogue comprising a cyclopentanyl modified nucleotide as sting modulator” (INSTITUTE OF ORGANIC CHEMISTRY AND BIOCHEMISTRY ASCR, V.V.I., priority 2019, dated 2023).

Where two headings read alike, the source gives them in different places.

Test [1] concerns the target T1, WT STING (Homo sapiens, UniProt Q86WV6, H232R). The test is described as follows: 293T WT STING standard reporter assay. The test is classed as cell-based. Also on record: host or cells: 293T (ATCC CRL-3216), stably transfected, with 4xISRE firefly luciferase reporter. The settings on record: 293T wtSTING-FL cells, ISRE firefly luciferase; no digitonin; 7 hours with compounds; 8-point curve. From the text: Two complementary oligonucleotides of the sequence […] […] […] […] […] The oligonucleotides were mixed in equal molar amounts, hybridized, and cleaved by restriction endonucleases HindIII (cat. #. R0104S, NEB, Ipswich, USA) and BglII (cat. #R0144S, NEB, Ipswich, USA). Ultimately, they were ligated into plasmid pGL4.27 (cat. #E6651, Promega, Madison, USA) linearized with the same enzymes. As result the sequence with four ISRE sites was placed upstream of the minimum promoter of firefly luciferase reporter gene.
After 5 minutes incubation at room temperature (RT), 250 μL of the mixture was added dropwise to the cells in one well. Cells were incubated 36 hours at 37° C. with 5% CO2, and then detached with 0.05% Trypsin and 0.22 g/L EDTA (both cat. #L0941, Biowest, Riverside, USA).
Transfected cells were seeded onto poly-D-lysine coated six well plates at density 50,000 cells per 1 cm^2 in DMEM medium with high glucose containing 10% heat inactivated FBS, 30 μg/mL blasticidin (cat. #ant-b1-05, InvivoGen, San Diego, USA), 0.06 mg/ml Penicillin G and 0.1 mg/ml Streptomycin Sulfate (both cat. #. L0018, Biowest, Riverside, USA). The medium was replenished every 3-4 days until visible colonies of cells resistant to blasticidin were formed.
Blasticidin resistant cells stably expressing WT STING were further transfected with […] plasmid following the same procedure as described above. […] Homogeneous culture of stably double transfected cells was prepared by limiting dilution of cells in 96 well plates and wells with cells were selected that originated from a single cell.
The medium was removed next day and three-fold serial dilutions of compounds in 100 μl medium were added to the cells. The plates with cells were incubated for 7 hours at 37° C. with 5% CO2. After 50 μl of the medium was removed, 30 μl of ONE-Glo™ Luciferase Assay System reagent (cat. #E6120, Promega, Madison, USA) was added to each well and luminescence was read on Synergy H1 (Biotek, Winooski, USA).
Target sequence in this assay (Q86WV6 whole entry H232R): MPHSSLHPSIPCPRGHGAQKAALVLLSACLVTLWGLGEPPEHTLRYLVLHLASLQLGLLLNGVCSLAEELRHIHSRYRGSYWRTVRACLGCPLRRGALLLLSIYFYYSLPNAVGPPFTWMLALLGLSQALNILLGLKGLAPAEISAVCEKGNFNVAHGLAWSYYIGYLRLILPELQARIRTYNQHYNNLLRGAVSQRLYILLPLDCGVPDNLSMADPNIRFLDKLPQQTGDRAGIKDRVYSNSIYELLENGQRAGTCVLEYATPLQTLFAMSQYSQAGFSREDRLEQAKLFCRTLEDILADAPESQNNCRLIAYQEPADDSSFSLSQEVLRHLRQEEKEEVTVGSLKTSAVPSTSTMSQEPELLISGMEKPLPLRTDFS

In test [2] the test system is peripheral blood mononuclear cells (PBMC). The test is described as follows: Peripheral blood mononuclear cell (PBMC) assay. It is filed as cell-based. The following applies: 1 h with compounds, washed, 15 hour incubation, average of one to four donors. As for the experimental part:
Selected compounds were tested in an in vitro peripheral blood mononuclear cell (PBMC) assay. […] Serially diluted tested compounds were added to wells in 50 μl of cultivation medium and cell were incubated with compounds for 1 h at 37° C. with 5% CO2. Plates with cells were then spun 500 g for 5 minutes and medium was removed. Cells were washed twice with the cell culture medium by the use of centrifugation and gently resuspended in 100 μl medium without compounds. After 15 hour incubation at 37° C. with 5% CO2, the cell culture medium was collected and the levels of interferon-alpha (INF-α), interferon-gamma (INF-γ) and tumor necrosis factor-alpha (TNF-α) were determined with ProcartaPlex Assays (ThermoFisher, Waltham, USA) and MAGPIX System (Merck KGaA, Darmstadt, Germany). […] Values reported are an average of runs from one to four donors.

Test [3] concerns the target T2, AQ STING (G230A-R293Q) (Homo sapiens, UniProt Q86WV6, G230A/H232R/R293Q).
T2 construct: 8xHis (N, cleaved yes); SUMO (N, cleaved yes); made in house; host or cells: E. coli Rosetta-gami B (DE3)
The test is described as follows: Differential scanning fluorimetry (DSF) with AQ STING. It is filed as binding. The following applies: thermal shift vs apoprotein; 150 μM CDN; truncated human AQ STING 0.1 mg/ml. In short, it runs like this: (§1)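 […] STING proteins, alone or with CDNs, in triplicate, thermally denatured on a real-time PCR cycler. Denaturing temperatures taken from first-derivative curves; shift = mean Tm of STING–CDN complex minus mean Tm of apoprotein.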
A general note: In DSF a fluorescence change marks the thermal transition of the protein.

In test [4] the target is T1, WT STING. The test is described as follows: Digitonin assay using 293T wtSTING-FL reporter cells. The test is classed as cell-based. Also noted: host or cells: 293T (ATCC CRL-3216), stably transfected, with 4xISRE firefly luciferase reporter. The following applies: 293T wtSTING-FL cells, ISRE firefly luciferase; compounds in Digitonin buffer 30 minutes, then 5 hours; 8-point curve.
Target sequence in this assay (Q86WV6 whole entry H232R): as above

The target of test [5] is T1, WT STING. The test is described as follows: Differential scanning fluorimetry (DSF) with WT STING. It is filed as binding. Also on record: 8xHis (N, cleaved yes); SUMO (N, cleaved yes); made in house; host or cells: E. coli Rosetta-gami B (DE3). The following applies: thermal shift vs apoprotein; 150 μM CDN; truncated human WT STING 0.1 mg/ml. The method, boiled down: as §1
Target sequence in this assay (Q86WV6 140-343 H232R): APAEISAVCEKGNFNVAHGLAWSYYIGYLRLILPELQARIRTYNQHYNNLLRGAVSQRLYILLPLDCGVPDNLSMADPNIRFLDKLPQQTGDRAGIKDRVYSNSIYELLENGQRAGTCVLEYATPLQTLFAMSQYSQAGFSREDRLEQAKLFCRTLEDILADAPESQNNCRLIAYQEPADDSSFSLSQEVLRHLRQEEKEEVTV

The mark [6] stands for this setting: PBMC, interferon-alpha level, read-out: PBMC EC50 (μM) IFN-α.
The mark [7] stands for this setting: PBMC, interferon-gamma level, read-out: PBMC EC50 (μM) IFN-γ.
Where [8] appears, read: PBMC, tumor necrosis factor-alpha level, read-out: PBMC EC50 (μM) TNF-α.
Where [9] appears, read: interferon-alpha level, read-out: PBMC EC50 (μM) IFN-α.

T2 sequence (Q86WV6 140-343 G230A/H232R/R293Q): as the sequence (Q86WV6 140-343 H232R) above, with G91A, R154Q counted along it

Turning to `CC(C)(C)C(=O)OCOP1(=O)OC[C@H]2C[C@@H](n3cnc4c(N)ncnc43)C(F)[C@H]2OP(=O)(OCOC(=O)C(C)(C)C)OC[C@H]2O[C@@H](n3cnc4c(N)ncnc43)[C@@H](F)C2O1` (single isomer, unassigned) [Compound 136b], the EC50 – broadly, the concentration needed to bring the measured effect to its halfway point – in test [1] is 60 nM.

On to `CC(C)(C)C(=O)OCOP1(=O)OC[C@H]2C[C@@H](n3cnc4c(N)ncnc43)C(F)[C@H]2OP(=O)(OCOC(=O)C(C)(C)C)OC[C@H]2O[C@@H](n3cnc4c(N)ncnc43)[C@@H](F)C2O1` (single isomer, unassigned) [Compound 136c], for which the EC50 in test [1] stood at 50 nM.

Consider `CC(C)(C)C(=O)OCOP1(=O)OC[C@H]2C[C@@H](n3cnc4c(N)ncnc43)C(F)[C@H]2OP(=O)(OCOC(=O)C(C)(C)C)OC[C@H]2O[C@@H](n3cnc4c(N)ncnc43)[C@@H](F)C2O1` (single isomer, unassigned) [Compound 136d], for which the half-maximal effective concentration (EC50) amounted to 0.9 µM in test [2] (setting [6]), 2.4 µM in test [2] (setting [7]), 0.8 µM in test [2] (setting [8]) and 10 nM in test [1].

Consider `CC(C)(C)C(=O)OCOP1(=O)OC[C@H]2O[C@@H](n3cnc4c(N)ncnc43)C(F)C2OP(=O)(OCOC(=O)C(C)(C)C)OC[C@H]2C[C@@H](n3cnc4c(N)ncnc43)CC2O1` (single isomer, unassigned) [Compound 137a], for which, in test [1], the EC50 came to 200 nM.

For the compound `CC(C)(C)C(=O)OCOP1(=O)OC[C@H]2O[C@@H](n3cnc4c(N)ncnc43)C(F)C2OP(=O)(OCOC(=O)C(C)(C)C)OC[C@H]2C[C@@H](n3cnc4c(N)ncnc43)CC2O1` (single isomer, unassigned) [Compound 137b], the EC50 in test [1] came out at 90 nM.

Turning to `CC(C)(C)C(=O)OCOP1(=O)OC[C@H]2C[C@@H](n3cnc4c(N)ncnc43)C(F)C2OP(=O)(OCOC(=O)C(C)(C)C)OC[C@H]2C[C@@H](n3cnc4c(N)ncnc43)C(F)C2O1` (single isomer, unassigned) [Compound 138a], the half-maximal effective concentration (EC50) came to 1.5 µM in test [2] (setting [7]), 1.9 µM in test [2] (setting [8]), 3.2 µM in test [2] (setting [9]) and 70 nM in test [1].

`CC(C)(C)C(=O)OCOP1(=O)OC[C@H]2C[C@@H](n3cnc4c(N)ncnc43)C(F)C2OP(=O)(OCOC(=O)C(C)(C)C)OC[C@H]2C[C@@H](n3cnc4c(N)ncnc43)C(F)C2O1` (single isomer, unassigned) [Compound 138b]: the EC50 in test [2] (setting [9]) amounted to 1 µM; in test [2] (interferon-gamma level, read-out: PBMC EC50 (μM) IFN-γ), 2.6 µM; in test [2] (tumor necrosis factor-alpha level, read-out: PBMC EC50 (μM) TNF-α), 1.3 µM; in test [1], 20 nM.

For the compound `CC(C)OC(=O)OCOP1(=O)OC[C@H]2O[C@@H](n3cnc4c(N)ncnc43)[C@H](F)[C@@H]2OP(=O)(OCOC(=O)OC(C)C)OC[C@H]2C[C@@H](n3cnc4c(N)ncnc43)[C@H](F)[C@@H]2O1` (single isomer, unassigned) [Compound 143a], the concentration for a half-maximal effect (EC50) in test [1] turned out to be 100 nM.

With `CCC(C)(C)C(=O)OCOP1(=O)OC[C@H]2O[C@@H](n3cnc4c(N)ncnc43)[C@H](F)[C@@H]2OP(=O)(OCOC(=O)C(C)(C)CC)OC[C@H]2C[C@@H](n3cnc4c(N)ncnc43)[C@H](F)[C@@H]2O1` (single isomer, unassigned) [Compound 144a], the 50% effective concentration (EC50) in test [1] amounted to 20 nM.

As to `CCC(C)(C)C(=O)OCOP1(=O)OC[C@H]2O[C@@H](n3cnc4c(N)ncnc43)[C@H](F)[C@@H]2OP(=O)(OCOC(=O)C(C)(C)CC)OC[C@H]2C[C@@H](n3cnc4c(N)ncnc43)[C@H](F)[C@@H]2O1` (single isomer, unassigned) [Compound 144c], the half-maximal effective concentration (EC50) in test [2] (setting [6]) came out at 0.004 µM; in test [2] (setting [7]), 0.003 µM; in test [2] (setting [8]), 0.002 µM; in test [1] it was 1 nM.

Consider `CC1(C(=O)OCOP2(=O)OC[C@H]3O[C@@H](n4cnc5c(N)ncnc54)[C@H](F)[C@@H]3OP(=O)(OCOC(=O)C3(C)CCCCC3)OC[C@H]3C[C@@H](n4cnc5c(N)ncnc54)[C@H](F)[C@@H]3O2)CCCCC1` (single isomer, unassigned) [Compound 145a], for which the EC50 in test [1] is 120 nM.

`CC1(C(=O)OCOP2(=O)OC[C@H]3O[C@@H](n4cnc5c(N)ncnc54)[C@H](F)[C@@H]3OP(=O)(OCOC(=O)C3(C)CCCCC3)OC[C@H]3C[C@@H](n4cnc5c(N)ncnc54)[C@H](F)[C@@H]3O2)CCCCC1` (single isomer, unassigned) [Compound 145b]: the EC50 is 0.007 µM in test [2] (setting [6]), 0.002 µM in test [2] (setting [7]), 0.006 µM in test [2] (setting [8]) and 1 nM in test [1].

Take `CCCCCCCC(=O)OCOP1(=O)OC[C@H]2O[C@@H](n3cnc4c(N)ncnc43)[C@H](F)[C@@H]2OP(=O)(OCOC(=O)CCCCCCC)OC[C@H]2C[C@@H](n3cnc4c(N)ncnc43)[C@H](F)[C@@H]2O1` (single isomer, unassigned) [Compound 146a]: the values for the EC50 in test [2] (setting [6]) and in test [1] were 0.04 µM and 0.1 nM, respectively.

On to `Nc1ncnc2c1ncn2[C@@H]1C[C@@H]2COP(=O)(O)OC3C(O)[C@H](n4cnc5c(N)ncnc54)C[C@@H]3COP(=O)(O)OC2C1O` (stereo partly drawn) [Compound 133, (2R,3S,3aR,7aR,9R,10S,10aR,14aR)-2,9-bis(6-amino-9H-purin-9-yl)-3,5,10,12-tetrahydroxydodecahydrodicyclopenta[d,j][1,3,7,9]tetraoxa[2,8]-diphosphacyclododecine 5,12-dioxide], for which the ΔTm – broadly, the shift of the melting midpoint relative to a reference – at 150 µM in test [3] worked out at 4.4 °C; in test [5] it was 0.6 °C. Further, the EC50 in test [4] worked out at 1200 nM.

With `Nc1ncnc2c1ncn2[C@@H]1C[C@@H]2COP(=O)(O)O[C@H]3[C@@H](F)[C@H](n4cnc5c(N)ncnc54)O[C@@H]3COP(=O)(O)O[C@H]2[C@H]1O` [Compound 134, (1R,6R,8R,9R,10R,15R,17R,18S)-8,17-bis(6-amino-9H-purin-9-yl)-9-fluoro-3,12,18-trihydroxy-2,4,7,11,13-pentaoxa-3λ^5,12λ^5-diphosphatricyclo[13.3.0.0^6,10]octadecane-3,12-dione], the shift in melting temperature (ΔTm) at 150 µM came to 13.2 °C in test [3] and 6.4 °C in test [5]. For the same compound, in test [4], the EC50 worked out at 20 nM.

Take “(((2R,3R,3aR,7aR,9R,10S,10aR,14aR)-2,9-bis(6-amino-9H-purin-9-yl)-3,10-difluoro-12-hydroxy-5,12-dioxidodecahydro-2H-cyclopenta[d]furo[3,2-j][1,3,7,9]tetraoxa[2,8]diphosphacyclododecin-5-yl)oxy)methyl pivalate [Compound 135a]”: the 50% effective concentration (EC50) in test [1] came to 300 nM.
